From the supplement of paper PMC4932681

Experiments:
BT-474 Tam1 [1] = experiment: drug sensitivity score (DSS) (DSS (dimensionless)); higher = more sensitive; extreme values may be limits of the assay; conditions: 4-OH-tamoxifen in medium 1 µM; 72 h
How it was run: (§1)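 CellTiter-Glo viability was the readout, taken on a PHERAstar and normalised to vehicle-only and positive controls. It was measured after breast cancer cell lines and their resistant derivatives spent 72 h at 37 °C in 384-well plates containing library drugs at five concentrations spanning a 10 000-fold range, with 1 μM of the selecting drug in the medium of resistant lines. From logistic dose–response fits in the Breeze pipeline came drug sensitivity score, relative IC50 (curve midpoint) and top-dose inhibition.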

BT-474 Tam2 [2] = experiment: as above; conditions: 4-OH-tamoxifen in medium 1 µM; 72 h
How it was run: as §1

BT-474 [3] = experiment: as above; conditions: 72 h
How it was run: as §1

MCF-7 Tam1 [4] = experiment: as above; conditions: 4-OH-tamoxifen in medium 1 µM; 72 h
How it was run: as §1

MCF-7 [5] = experiment: as above; conditions: 72 h
How it was run: as §1

T-47D Tam1 [6] = experiment: as above; conditions: 4-OH-tamoxifen in medium 1 µM; 72 h
How it was run: as §1

T-47D Tam2 [7] = experiment: as above; conditions: 4-OH-tamoxifen in medium 1 µM; 72 h
How it was run: as §1

T-47D [8] = experiment: as above; conditions: 72 h
How it was run: as §1

ZR-75-1 Tam1 [9] = experiment: as above; conditions: 4-OH-tamoxifen in medium 1 µM; 72 h
How it was run: as §1

ZR-75-1 Tam2 [10] = experiment: as above; conditions: 4-OH-tamoxifen in medium 1 µM; 72 h
How it was run: as §1

ZR-75-1 [11] = experiment: as above; conditions: 72 h
How it was run: as §1

BT-474 Tam1 [12] = experiment: relative IC50 (midpoint of fitted logistic curve, plateau may be below 50% inhibition; CellTiter-Glo viability); higher = less potent; conditions: 4-OH-tamoxifen in medium 1 µM; 72 h
How it was run: as §1

BT-474 Tam2 [13] = experiment: as above; conditions: 4-OH-tamoxifen in medium 1 µM; 72 h
How it was run: as §1

BT-474 [14] = experiment: as above; conditions: 72 h
How it was run: as §1

MCF-7 Tam1 [15] = experiment: as above; conditions: 4-OH-tamoxifen in medium 1 µM; 72 h
How it was run: as §1

MCF-7 [16] = experiment: as above; conditions: 72 h
How it was run: as §1

T-47D Tam1 [17] = experiment: as above; conditions: 4-OH-tamoxifen in medium 1 µM; 72 h
How it was run: as §1

T-47D Tam2 [18] = experiment: as above; conditions: 4-OH-tamoxifen in medium 1 µM; 72 h
How it was run: as §1

T-47D [19] = experiment: as above; conditions: 72 h
How it was run: as §1

ZR-75-1 Tam1 [20] = experiment: as above; conditions: 4-OH-tamoxifen in medium 1 µM; 72 h
How it was run: as §1

ZR-75-1 Tam2 [21] = experiment: as above; conditions: 4-OH-tamoxifen in medium 1 µM; 72 h
How it was run: as §1

ZR-75-1 [22] = experiment: as above; conditions: 72 h
How it was run: as §1

Row | Compound | drug sensitivity score (BT-474 Tam1 [1]) | drug sensitivity score (BT-474 Tam2 [2]) | drug sensitivity score (BT-474 [3]; 4-OH-tamoxifen in medium 0 µM) | drug sensitivity score (BT-474 [3]; 4-OH-tamoxifen in medium 1 µM) | drug sensitivity score (MCF-7 Tam1 [4]) | drug sensitivity score (MCF-7 [5]; 4-OH-tamoxifen in medium 0 µM) | drug sensitivity score (MCF-7 [5]; 4-OH-tamoxifen in medium 1 µM) | drug sensitivity score (T-47D Tam1 [6]) | drug sensitivity score (T-47D Tam2 [7]) | drug sensitivity score (T-47D [8]; 4-OH-tamoxifen in medium 0 µM) | drug sensitivity score (T-47D [8]; 4-OH-tamoxifen in medium 1 µM) | drug sensitivity score (ZR-75-1 Tam1 [9]) | drug sensitivity score (ZR-75-1 Tam2 [10]) | drug sensitivity score (ZR-75-1 [11]; 4-OH-tamoxifen in medium 0 µM) | drug sensitivity score (ZR-75-1 [11]; 4-OH-tamoxifen in medium 1 µM) | relative IC50 (BT-474 Tam1 [12]) [nM] | relative IC50 (BT-474 Tam2 [13]) [nM] | relative IC50 (BT-474 [14]; 4-OH-tamoxifen in medium 1 µM) [nM] | relative IC50 (MCF-7 Tam1 [15]) [nM] | relative IC50 (MCF-7 [16]; 4-OH-tamoxifen in medium 0 µM) [nM] | relative IC50 (MCF-7 [16]; 4-OH-tamoxifen in medium 1 µM) [nM] | relative IC50 (T-47D Tam1 [17]) [nM] | relative IC50 (T-47D Tam2 [18]) [nM] | relative IC50 (T-47D [19]; 4-OH-tamoxifen in medium 0 µM) [nM] | relative IC50 (ZR-75-1 Tam1 [20]) [nM] | relative IC50 (ZR-75-1 Tam2 [21]) [nM] | relative IC50 (ZR-75-1 [22]; 4-OH-tamoxifen in medium 0 µM) [nM] | relative IC50 (ZR-75-1 [22]; 4-OH-tamoxifen in medium 1 µM) [nM] | relative IC50 (BT-474 [14]; 4-OH-tamoxifen in medium 0 µM) [nM] | relative IC50 (T-47D [19]; 4-OH-tamoxifen in medium 1 µM) [nM]
1 | CC(C)(C)c1cnc(CSc2cnc(NC(=O)C3CCNCC3)s2)o1 [SNS-032] | 23.8 | 14.4 | 0.78 | 15.8 | 2.67 | 20 | 11.8 | 8.4 | 4.33 | 7.36 | 1.24 | 9.78 | 11.1 | 12.3 | 9.55 | 82.9 | 420 | 83.7 | 1200 | 38.2 | 134 | 362 | 600 | 451 | 308 | 297 | 243 | 315 | – | –
2 | O=C(Nc1cccnc1)N1CCC(Cc2cccc(Oc3ccc(C(F)(F)F)cn3)c2)CC1 [PF-3845] | 23.7 | 20.4 | 18.1 | 21.2 | 9.98 | 16.5 | 19.2 | 17.5 | 13.7 | 11.6 | 10.7 | 18.7 | 18.8 | 10.2 | 19.7 | 102 | 187 | 157 | 1970 | 161 | 140 | 295 | 429 | 278 | 218 | 233 | 725 | 179 | 245 | 3620
3 | CN[C@@H]1C[C@H]2O[C@@](C)([C@@H]1OC)n1c3ccccc3c3c4c(c5c6ccccc6n2c5c31)C(=O)N[C@H]4O [UCN-01] | 13.4 | 15.6 | 10.8 | 13.3 | 14.3 | 17.1 | 15.8 | 10.2 | 8.25 | 9.64 | 8.4 | 8.97 | 9.41 | 9.37 | 6.62 | 588 | 409 | 525 | 486 | 198 | 355 | 736 | 855 | 598 | 615 | 686 | 437 | 1010 | 467 | 864
4 | Nc1cccc2c1CN(C1CCC(=O)NC1=O)C2=O (configuration not stated) [Lenalidomide] | 0 | 0 | 0 | 0 | 0 | 0 | 1.39 | 0 | 0 | 0 | 0 | 0 | 0 | 0 | 0 | > 10000 | > 10000 | > 10000 | > 10000 | > 10000 | – | > 10000 | > 10000 | > 10000 | > 10000 | > 10000 | > 10000 | > 10000 | > 10000 | > 10000
